Experimental data taken from patent US11744799B2, “Topical composition” (MC2 Therapeutics Limited, priority 2017, dated 2023).
Several values for one entry are separate records, joined by “and”; a condition that tells them apart may be missing. Equal values may be shown once.

Experiment: Stability of 1% crisaborole solution in 50% ethanol/citrate buffer at various pH
Assay type: physicochemical
Conditions: for % peak purity: 1% solution, 50% ethanol, 40° C. for one month
Method: The sample was stored in a closed, airtight glass container with headspace comprising no more than 5% by volume of the total usable volume of the container. Each container containing a sample was stored at a constant temperature of 40° C. in a standard laboratory incubator (for example, Memmert IF260PLUS Incubator). The storage period for each sample was […]. The chemical stability of the crisaborole in each sample after the storage period was measured by a HPLC method. The HPLC method was as follows: A 1% solution of crisaborole was prepared with 50% ethanol and a citrate buffer to pH 5.5. The system was then stored at 40° C. for one month under the conditions of Example 3 and gave an 84% peak purity. Equivalent solutions were prepared and tested at pH 4.5, 6.5, 7.5 and 8.5.

pH at which chemical stability is highest (aqueous medium, pH 4.5 to 8.5 tested): 5.5 | % peak purity (pH 4.5): 79.5% | % peak purity (pH 5.5, citrate buffer): 84% and 84.1% | % peak purity (pH 6.5): 79.8% | % peak purity (pH 7.5): 72.1% | % peak purity (pH 8.5): 51.3%
Compound: N#Cc1ccc(Oc2ccc3c(c2)COB3O)cc1 [crisaborole]
